Earlier results in patent US8585707B2, “Continuous low irradiance photodynamic therapy method” (priority 2006, dated 2013).

Settings: after intravenous administration, attributed to extended half-life

Photofrin
time the level of drug in the tissue remains stable: over 36 hours
